# Patent US20240246992A1, “MACROCYCLIC LRRK2 KINASE INHIBITORS” (LES LABORATOIRES SERVIER, priority 2021, published 2024)
# Target: human recombinant LRRK2 protein (Homo sapiens, UniProt Q5S007)
# Assay: LRRK2 kinase activity assay (ADP-Glo, LRRKtide peptide)
# Assay type: biochemical
# Conditions: human recombinant LRRK2 wt, LRRKtide peptide and ATP, 1 h at 37° C.
# In short: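 ADP-Glo luminescence read-out of a peptide assay: compound, ATP and LRRKtide substrate combined with recombinant human LRRK2 and incubated at 37 °C for 1 h. Ten-point data, N=2, curve-fitted to IC50.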
# Chain of human recombinant LRRK2 protein (Q5S007 whole entry): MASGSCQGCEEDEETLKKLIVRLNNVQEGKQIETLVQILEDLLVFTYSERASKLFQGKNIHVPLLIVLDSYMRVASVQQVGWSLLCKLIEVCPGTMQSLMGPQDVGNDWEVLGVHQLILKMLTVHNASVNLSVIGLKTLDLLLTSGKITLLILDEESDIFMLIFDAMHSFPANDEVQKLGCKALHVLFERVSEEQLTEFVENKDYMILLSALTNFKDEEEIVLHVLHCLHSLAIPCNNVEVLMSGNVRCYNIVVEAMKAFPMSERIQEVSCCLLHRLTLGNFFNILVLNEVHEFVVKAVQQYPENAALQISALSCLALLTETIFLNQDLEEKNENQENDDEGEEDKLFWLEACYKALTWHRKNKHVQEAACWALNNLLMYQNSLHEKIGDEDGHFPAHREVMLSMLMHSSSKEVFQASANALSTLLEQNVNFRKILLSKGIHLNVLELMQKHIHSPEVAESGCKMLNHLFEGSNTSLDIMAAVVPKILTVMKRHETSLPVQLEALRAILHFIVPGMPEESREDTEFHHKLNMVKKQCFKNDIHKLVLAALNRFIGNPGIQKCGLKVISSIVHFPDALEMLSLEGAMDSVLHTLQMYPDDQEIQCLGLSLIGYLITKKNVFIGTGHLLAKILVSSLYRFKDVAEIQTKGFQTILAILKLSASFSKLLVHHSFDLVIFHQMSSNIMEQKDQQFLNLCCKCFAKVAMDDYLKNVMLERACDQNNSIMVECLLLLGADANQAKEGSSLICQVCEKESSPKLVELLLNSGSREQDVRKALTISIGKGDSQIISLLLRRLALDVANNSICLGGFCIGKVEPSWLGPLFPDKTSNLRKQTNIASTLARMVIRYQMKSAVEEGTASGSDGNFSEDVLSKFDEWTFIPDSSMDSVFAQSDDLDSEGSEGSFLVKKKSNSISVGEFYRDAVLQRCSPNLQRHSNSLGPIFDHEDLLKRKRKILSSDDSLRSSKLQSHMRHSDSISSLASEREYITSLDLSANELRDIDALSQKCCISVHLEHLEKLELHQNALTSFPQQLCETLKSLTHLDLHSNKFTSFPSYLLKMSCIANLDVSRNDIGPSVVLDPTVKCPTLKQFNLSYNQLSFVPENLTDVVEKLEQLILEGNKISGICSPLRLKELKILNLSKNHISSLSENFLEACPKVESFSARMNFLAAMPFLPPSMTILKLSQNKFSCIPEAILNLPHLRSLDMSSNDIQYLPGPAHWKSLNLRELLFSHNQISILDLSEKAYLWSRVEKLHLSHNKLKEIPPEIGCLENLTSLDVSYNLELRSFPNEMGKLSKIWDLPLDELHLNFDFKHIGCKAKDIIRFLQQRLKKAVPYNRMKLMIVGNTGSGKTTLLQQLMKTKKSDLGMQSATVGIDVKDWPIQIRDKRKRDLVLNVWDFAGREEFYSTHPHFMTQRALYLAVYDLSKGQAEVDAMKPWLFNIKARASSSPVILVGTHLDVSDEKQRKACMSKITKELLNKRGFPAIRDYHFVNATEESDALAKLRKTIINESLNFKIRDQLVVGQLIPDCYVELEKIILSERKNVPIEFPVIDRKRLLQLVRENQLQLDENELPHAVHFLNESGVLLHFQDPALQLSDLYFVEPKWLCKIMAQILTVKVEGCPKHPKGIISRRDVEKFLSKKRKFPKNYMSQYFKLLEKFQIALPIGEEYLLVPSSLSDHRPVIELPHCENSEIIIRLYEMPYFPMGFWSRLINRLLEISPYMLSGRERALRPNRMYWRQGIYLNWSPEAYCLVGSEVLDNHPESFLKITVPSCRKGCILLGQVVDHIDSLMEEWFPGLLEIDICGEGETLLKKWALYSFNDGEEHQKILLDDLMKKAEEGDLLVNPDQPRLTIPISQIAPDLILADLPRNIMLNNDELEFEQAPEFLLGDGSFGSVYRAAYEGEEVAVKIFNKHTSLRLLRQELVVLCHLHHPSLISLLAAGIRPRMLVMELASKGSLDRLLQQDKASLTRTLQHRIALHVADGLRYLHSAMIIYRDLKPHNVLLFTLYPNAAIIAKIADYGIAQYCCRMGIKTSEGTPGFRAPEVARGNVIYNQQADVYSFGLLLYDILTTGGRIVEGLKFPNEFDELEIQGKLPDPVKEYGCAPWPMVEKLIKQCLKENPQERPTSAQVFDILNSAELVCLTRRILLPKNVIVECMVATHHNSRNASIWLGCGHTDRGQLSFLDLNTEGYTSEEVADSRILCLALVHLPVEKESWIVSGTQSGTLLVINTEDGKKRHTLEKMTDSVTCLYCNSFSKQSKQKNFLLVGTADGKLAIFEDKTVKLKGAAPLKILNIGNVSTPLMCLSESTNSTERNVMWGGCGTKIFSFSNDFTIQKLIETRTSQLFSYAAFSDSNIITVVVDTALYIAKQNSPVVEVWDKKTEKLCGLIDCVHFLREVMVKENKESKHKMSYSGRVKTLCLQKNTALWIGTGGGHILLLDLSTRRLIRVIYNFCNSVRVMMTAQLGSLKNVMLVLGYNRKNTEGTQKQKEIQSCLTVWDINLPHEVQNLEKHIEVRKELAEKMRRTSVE
row,SMILES,IC50 [nM]
1,"C[C@H]1COCCOCCc2cncc(c2)-c2n[nH]c3ccc(cc23)O1 [Example 69, (14S)-14-methyl-9,12,15-trioxa-4,20,21-triazatetracyclo[14.5.2.1^2,6.0^19,22] tetracosa-1(21),2(24),3,5,16(23),17,19(22)-heptaene]",< 100
2,"C[C@@H]1COCCn2cc(cn2)-c2n[nH]c3ccc(cc23)OCCO1 [Example 70, (10R)-10-methyl-8,11,14-trioxa-4,5,19,20-tetraazatetracyclo[13.5.2.1^2,5.0^18,21]tricosa-1(20),2(23),3,15(22),16,18(21)-hexaene]",< 100
3,"C[C@@H]1COCCOCCn2ncc(n2)-c2n[nH]c3ccc(cc23)O1 [Example 71, (13R)-13-methyl-8,11,14-trioxa-4,5,19,20,23-pentaazatetracyclo[13.5.2.1^2,5.0^18,21]tricosa-1(20),2(23),3,15(22),16,18(21)-hexaene]",< 100
4,"C[C@H]1COCCOCCn2cc(cc2C#N)-c2n[nH]c3ccc(cc23)O1 [Example 72, (13S)-13-methyl-8,11,14-trioxa-5,19,20-triazatetracyclo[13.5.2.1^2,5.0^18,21] tricosa-1(20),2(23),3,15(22),16,18(21)-hexaene-4-carbonitrile]",< 10
5,"C[C@@H]1CCOCCOCC2=NC=C(S2)c2n[nH]c3ccc(cc23)O1 [Example 75, (13R)-13-methyl-7,10,14-trioxa-23-thia-4,19,20-triazatetracyclo[13.5.2.1^2,5.0^18,21]tricosa-1(20),2,4,15(22),16,18(21)-hexaene]",< 10
6,"C[C@@H]1Cn2cc(cn2)-c2n[nH]c3ccc(cc23)OCCOCCO1 [Example 77, (7R)-7-methyl-8,11,14-trioxa-4,5,19,20-tetraazatetracyclo[13.5.2.1^2,5.0^18,21] tricosa-1(20),2(23),3,15(22),16,18(21)-hexaene]",< 100
7,"FC1(F)COCCOCCn2cc(cn2)-c2n[nH]c3ccc(cc23)O1 [Example 78, 13,13-difluoro-8,11,14-trioxa-4,5,19,20-tetraazatetra cyclo[13.5.2.1^2,5.0^18,21]tricosa-1(20),2(23),3, 15(22),16,18(21)-hexaene]",< 10
8,"C[C@H]1COCCOCCn2ncc(n2)-c2n[nH]c3ccc(cc23)O1 [Example 81, (13S)-13-methyl-8,11,14-trioxa-4,5,19,20,23-pentaazatetracyclo[13.5.2.1^2,5.0^18,21]tricosa-1(20),2(23),3,15(22),16,18(21)-hexaene]",< 100
9,"C[C@H]1COc2ccc3[nH]nc(c3c2)-c2cc(C#N)n(c2)CCOCCO1 [Example 85, (12S)-12-methyl-8,11,14-trioxa-5,19,20-triazatetracyclo[13.5.2.1^2,5.0^18,21] tricosa-1(20),2(23),3,15(22),16,18(21)-hexaene-4-carbonitrile]",< 10
10,"C[C@@H]1COCCO[C@@H](C)COc2ccc3[nH]nc(c3c2)-c2cnn1c2 [Example 87, (6R,12S)-6,12-dimethyl-8,11,14-trioxa-4,5,19,20-tetraazatetracyclo[13.5.2.1^2,5.0^18,21]tricosa-1(20),2(23),3,15(22),16,18(21)-hexaene]",< 10
11,"C[C@@H]1COCCOCCn2cc(cn2)-c2n[nH]c3c(F)cc(cc23)O1 [Example 88, (13R)-17-fluoro-13-methyl-8,11,14-trioxa-4,5,19,20-tetraazatetracyclo [13.5.2.1^2,5.0^18,21]tricosa-1(20),2(23),3,15(22),16,18(21)-hexaene]",< 10
12,"C[C@H]1COc2ccc3[nH]nc(c3c2)-c2cnn(c2)[C@@H](C)COCCO1 [Example 89, (6S,12S)-6,12-dimethyl-8,11,14-trioxa-4,5,19,20-tetraazatetracyclo [13.5.2.1^2,5.0^18,21]tricosa-1(20),2(23),3,15(22),16,18(21)-hexaene]",< 10
13,"C[C@@H]1CCOCCCn2ncc(n2)-c2n[nH]c3ccc(cc23)O1 [Example 90, (12R)-12-methyl-9,13-dioxa-4,5,18,19,22-pentaazatetracyclo[12.5.2.1^2,5.0^17,20]docosa-1(19),2(22),3,14(21),15,17(20)-hexaene]",< 10
14,"CN1CCOCCOc2cc(cc(N3CCOCC3)c2)-c2n[nH]c3ccc(cc23)C1 [Example 91, 13-methyl-4-(morpholin-4-yl)-7,10-dioxa-13,19,20-triazatetracyclo [13.5.2.1^2,6.0^18,21]tricosa-1(20),2,4,6(23),15,17,21-heptaene]",< 100
15,"C[C@H]1CCOCCCn2ncc(n2)-c2n[nH]c3ccc(cc23)O1 [Example 92, (12S)-12-methyl-9,13-dioxa-4,5,18,19,22-pentaazatetracyclo[12.5.2.1^2,5.0^17,20]docosa-1(19),2(22),3,14(21),15,17(20)-hexaene]",< 10
16,"C[C@@H]1COCCOC[C@H](C)n2cc(cn2)-c2n[nH]c3ccc(cc23)O1 [Example 93, (6S,13R)-6,13-dimethyl-8,11,14-trioxa-4,5,19,20-tetraazatetracyclo[13.5.2.1^2,5.0^18,21]tricosa-1(20),2(23),3,15(22),16,18(21)-hexaene]",< 100
17,"C[C@@H]1CCOCC[C@@H](C)n2ncc(n2)-c2n[nH]c3ccc(cc23)O1 [Example 94, (6R,12R)-6,12-dimethyl-9,13-dioxa-4,5,18,19,22-pentaazatetracyclo[12.5.2.1^2,5.0^17,20]docosa-1(19),2(22),3,14(21),15,17(20)-hexaene]",< 10
18,"c1nn2cc1-c1n[nH]c3cnc(cc13)OCCOCCOCC2 [Example 96, 8,11,14-trioxa-4,5,16,19,20-pentaazatetracyclo[13.5.2.1^2,5.0^18,21]tricosa-1(20),2(23),3,15(22),16,18(21)-hexaene]",< 100
19,"C[C@@H]1CCO[C@@H](C)CCn2cc(cn2)-c2n[nH]c3ccc(cc23)O1 [Example 97, (8S,12R)-8,12-dimethyl-9,13-dioxa-4,5,18,19-tetraaza tetracyclo[12.5.2.1^2,5.0^17,20]docosa-1(19),2(22),3,14(21),15,17(20)-hexaene]",< 10

# Results, then the compound that gave them:
row,IC50 [nM],SMILES
1,< 100,"c1ncc2cc1CCOCCOCCOc1ccc3[nH]nc-2c3c1 [Example 68, 9,12,15-trioxa-4,20,21-triazatetracyclo[14.5.2.1^2,6.0^19,22]tetracosa-1(21), 2(24),3,5,16(23),17,19(22)-heptaene]"
2,< 100,"c1nn2cc1-c1n[nH]c3ccc(nc13)OCCOCCOCC2 [Example 73, 8,11,14-trioxa-4,5,19,20,22-pentaazatetracyclo[13.5.2.1^2,5.0^18,21]tricosa-1(20),2(23),3,15(22), 16,18(21)-hexaene]"
3,< 10,"c1cc2[nH]nc3c2cc1OCCCOCCCn1ncc-3n1 [Example 74, 9,13-dioxa-4,5,18,19,22-pentaazatetracyclo[12.5.2.1^2,5.0^17,20]docosa-1(19), 2(22),3,14(21),15,17(20)-hexaene]"
4,> 1000,"C[C@@H]1COCCOCCc2nc(cn2C)-c2n[nH]c3ccc(cc23)O1 [Example 76, (13R)-4,13-dimethyl-8,11,14-trioxa-4,19,20,23-tetraazatetracyclo[13.5.2.1^2,5.0^18,21]tricosa-1(20),2,5(23),15(22),16,18(21)-hexaene]"
5,< 100,"C[C@H]1CCOCCOCc2nc(cn2C)-c2n[nH]c3ccc(cc23)O1 [Example 79, (13S)-4,13-dimethyl-7,10,14-trioxa-4,19,20,23-tetraazatetracyclo[13.5.2.1^2,5.0^18,21]tricosa-1(20),2,5(23),15(22),16,18(21)-hexaene]"
6,< 1000,"C[C@H]1COCCOCCn2ccc(n2)-c2n[nH]c3ccc(cc23)O1 [Example 80, (13S)-13-methyl-8,11,14-trioxa-5,19,20,23-tetraazatetracyclo [13.5.2.1^2,5.0^18,21]tricosa-1(20),2(23),3,15(22),16,18(21)-hexaene]"
7,< 100,"C[C@@H]1COCCOCCn2cc(cc2C#N)-c2n[nH]c3ccc(cc23)O1 [Example 82, (13R)-13-methyl-8,11,14-trioxa-5,19,20-triazatetracyclo[13.5.2.1^2,5.0^18,21] tricosa-1(20),2(23),3,15(22),16,18(21)-hexaene-4-carbonitrile]"
8,< 1000,"C[C@@H]1COCCOCCn2ccc(n2)-c2n[nH]c3ccc(cc23)O1 [Example 83, (13R)-13-methyl-8,11,14-trioxa-5,19,20,23-tetraazatetracyclo[13.5.2.1^2,5.0^18,21]tricosa-1(20),2(23),3,15(22),16,18(21)-hexaene]"
9,< 10,"c1cc2[nH]nc3c2cc1OCCOCCCOCc1ncc-3s1 [Example 84, 7,11,14-trioxa-23-thia-4,19,20-triazatetracyclo[13.5.2.1^2,5.0^18,21]tricosa-1(20),2,4,15(22), 16,18(21)-hexaene]"
10,< 10,"C[C@@H]1COc2ccc3[nH]nc(c3c2)-c2cc(C#N)n(c2)CCOCCO1 [Example 86, (12R)-12-methyl-8,11,14-trioxa-5,19,20-triazatetracyclo [13.5.2.1^2,5.0^18,21]tricosa-1(20),2(23),3,15(22),16,18(21)-hexaene-4-carbonitrile]"
11,< 100,"COC1COCCOC[C@@H](C)Oc2ccc3[nH]nc(c3c2)-c2cnn1c2 (stereo partly drawn) [Example 95, (13R)-6-methoxy-13-methyl-8,11,14-trioxa-4,5,19,20-tetraazatetracyclo [13.5.2.1^2,5.0^18,21]tricosa-1(20),2(23),3,15(22),16,18(21)-hexaene]"
12,< 10,"C[C@@H]1CCn2cc(cn2)-c2n[nH]c3ccc(cc23)O[C@H](C)CCO1 [Example 98, (8R,12R)-8,12-dimethyl-9,13-dioxa-4,5,18,19-tetraazatetracyclo[12.5.2.1^2,5.0^17,20]docosa-1(19),2(22),3,14(21),15,17(20)-hexaene]"
13,< 10,"C[C@@H]1OCCOCCn2cc(cn2)-c2n[nH]c3ccc(cc23)O[C@@H]1C [Example 99, (12S,13R)-12,13-dimethyl-8,11,14-trioxa-4,5,19,20-tetraazatetracyclo[13.5.2.1^2,5.0^18,21]tricosa-1(20),2(23),3,15(22),16,18(21)-hexaene]"
